System: RPTEC/TERT1 cells
Assay: LC-MS/MS analysis of intracellular concentration
Assay type: in vitro ADME, human
Details: for Intracellular concentration after recovery compared to the 24 h time-point: RPTEC/TERT1, 34 µM for 24 h, then 24 h in fresh medium; for Time course of intracellular concentration: within the 24 h treatment period (1-2 min, 1, 3, 6, 24 h), n = 3
Description: NRK-52E and RPTEC/TERT1 cells were seeded in 12-well plates (120,000 cells per well) and were allowed to grow for 48 h (NRK-52E) or 10 d (RPTEC/TERT1) until they reached 100% confluence. After cells achieved 100% confluence, the supernatant was aspirated, and the cells were washed twice with 1 x PBS. Cells were treated with polymyxins at a final concentration of 34 µM for 24 h. Samples were taken at five different treatment time points (1–2 min, 1, 3, 6, and 24 h). In addition, a recovery sample was taken 24 h after the end of the 24 h treatment period. To this end, the supernatant was aspirated after 24 h treatment and the cells were washed three times with 1 x PBS to remove polymyxin B or colistin residues. Fresh growth medium was added, and the cells were incubated for another 24 h. At the end of each experiment, the cells were washed 3 times with 1 x PBS and trypsinized by adding 200 µL of trypsin. Detached cells were washed with 1,000 µL 1 x PBS and the cells were transferred to LoBind™ tubes (Eppendorf). Cell count was determined using a Fuchs-Rosenthal counting chamber (Hartenstein). Cells were centrifuged for 5 min at 4°C at 10.000 rpm and the supernatant was aspirated. Cells were resuspended in 1,000 µL 1 x PBS and centrifuged for 5 min at 4°C at 10.000 rpm. After centrifugation, the supernatant was aspirated, and the cell pellet was resuspended in 250 µL ammonium acetate buffer (10 mM) and 250 µL of 30% methanol with 1% acetic acid containing polymyxin B respectively colistin as an internal standard. Cells were sonicated for 10 min and centrifuged for 5 min at 4°C at 14.000 rpm. The supernatant was transferred quantitatively into new LoBind™ tubes (Eppendorf) and dried in a centrifugal vacuum concentrator for 2–3 h. To measure compound plastic binding, the empty 12 well plates were washed with 1.5 ml acetonitrile on an orbital shaker for 2 h and supernatant was collected. For sample purification via solid phase extraction, SPE cartridges Strata-X 33 µm polymeric reversed phase, 10 mg/1 ml (Phenomenex) were used. In the conditioning step the cartridges were rinsed with 200 µL methanol (100%) and subsequently with 200 µL ddH2O to activate the sorbent bed. The dried samples were dissolved in 200 µL 1% acetic acid and transferred onto the SPE cartridge. The SPE cartridge were rinsed once with 200 µL 1% acetic acid. Impurities were removed by rinsing the cartridge once with 200 µL 10% methanol. A fresh LoBind™ tube (Eppendorf) was placed under the SPE cartridge to eluate the samples by rinsing twice with 200 µL 90% methanol containing 1% acetic acid. The samples were dried in a centrifugal vacuum concentrator for 2–3 h. All samples were stored at −20°C until LC-MS/MS analysis.
A triple quadrupole mass spectrometer equipped with a Turbo-Ion® Spray source (QTrap API 2000; AB Sciex Instruments) was used for analyses. The mass spectrometer was coupled to an Agilent 1100 HPLC system consisting of a binary pump system, a vacuum degasser and an autosampler (Agilent 1,100). […]

Substance | Intracellular concentration compared to polymyxin B (RPTEC/TERT1, 34 µM) | Intracellular concentration after recovery compared to the 24 h time-point | Time course of intracellular concentration (RPTEC/TERT1, 34 µM)
Colistin | lower intracellular concentrations | declined during the 24 h off-dose recovery period | continuous rise in the intracellular concentration
Polymyxin B | – | declined during the 24 h off-dose recovery period | continuous rise in the intracellular concentration
